Earlier results in patent publication US6811840B1, “Decorative transfer process” (Stahls' Inc., priority 1996, dated 2004).

Row | solubility in water (in words) | SMILES | solubility in water (at 20° C.)
1 | insoluble in water | CC1(C)Nc2cccc3c(N=Nc4ccc(N=Nc5ccccc5)c5ccccc45)ccc(c23)N1 [Sudan Black X60] | –
2 | insoluble in water | Cc1ccccc1/N=N/c1ccc(/N=N/c2c(O)ccc3ccccc23)c(C)c1 [Oil Red 234] | –
3 | insoluble in water | CCCCCNc1ccc(NCCCCC)c2c1C(=O)c1ccccc1C2=O [Oil Blue N] | –
4 | – | CCCCNc1ccc(NCCCC)c2c1C(=O)c1ccccc1C2=O [Sudan Blue 670] | less than 1 gram of dye per liter of water
5 | insoluble in water | Oc1ccc2ccccc2c1N=Nc1ccccc1 [Sudan Orange 220] | –
